Reference: ChEMBL document CHEMBL4152208, “Synthesis and structure-activity relationships of quinolinone and quinoline-based P2X7 receptor antagonists and their anti-sphere formation activities in glioblastoma cells” (Eur J Med Chem, 2018)
Each block holds one compound with its values, some of them ahead of it. Active and inactive are the calls of the source. No cut-off for these calls is given here.

Columns and labels:
P2X purinoceptor 3 = target: T1, P2X purinoceptor 3 (Rattus norvegicus, UniProt P49654); test: Antagonist activity at P2X3 receptor in rat DRG neurons at -70 mV holding potential by whole cell patch clamp method
T1 sequence (P49654 whole entry): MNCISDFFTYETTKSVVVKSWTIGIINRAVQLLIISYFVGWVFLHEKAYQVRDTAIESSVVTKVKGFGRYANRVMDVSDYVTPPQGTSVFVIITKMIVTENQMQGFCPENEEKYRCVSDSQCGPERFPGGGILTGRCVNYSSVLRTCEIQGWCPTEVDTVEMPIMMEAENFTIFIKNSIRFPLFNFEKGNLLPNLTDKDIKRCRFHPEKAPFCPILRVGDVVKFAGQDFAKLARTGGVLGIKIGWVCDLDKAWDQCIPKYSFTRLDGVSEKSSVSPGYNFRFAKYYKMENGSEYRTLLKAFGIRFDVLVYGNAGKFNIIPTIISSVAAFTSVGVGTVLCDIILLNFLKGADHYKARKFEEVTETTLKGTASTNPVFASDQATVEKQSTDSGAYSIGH

P2X purinoceptor 1 [1] = target: P2X purinoceptor 1 (Rattus norvegicus, UniProt P47824); test: Antagonist activity at wild type His6 tagged rat P2X1 receptor expressed in Xenopus laevis oocytes assessed as inhibition of alphabeta-me ATP-induced calcium flux at -60 mV holding potential by two electrode voltage clamp method; assay type: cell-based
P2X purinoceptor 1 [2] = target: T2, P2X purinoceptor 1 (Rattus norvegicus, UniProt P47824); test: Antagonist activity at P2X1 receptor in rat vas deferens assessed as inhibition of alphabeta me-ATP-induced response
T2 sequence (P47824 whole entry): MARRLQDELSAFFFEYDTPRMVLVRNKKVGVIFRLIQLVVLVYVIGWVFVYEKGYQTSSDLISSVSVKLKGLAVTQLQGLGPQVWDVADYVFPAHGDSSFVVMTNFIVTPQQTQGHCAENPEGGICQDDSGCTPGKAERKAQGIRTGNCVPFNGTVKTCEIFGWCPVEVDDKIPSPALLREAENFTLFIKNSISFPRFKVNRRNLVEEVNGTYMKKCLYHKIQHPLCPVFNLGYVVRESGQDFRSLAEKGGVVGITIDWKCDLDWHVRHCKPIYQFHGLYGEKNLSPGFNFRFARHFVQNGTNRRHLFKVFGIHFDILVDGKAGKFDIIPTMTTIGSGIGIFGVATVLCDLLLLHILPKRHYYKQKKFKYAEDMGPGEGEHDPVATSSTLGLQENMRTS

Homo sapiens [3] = organism: Homo sapiens; test: Antiproliferative activity against human TS15-88 cells at 50 uM after 24 hrs by MTS assay; assay type: functional, cell-based
[4] = Metabolic stability in human liver microsomes assessed as parent compound remaining at 1 uM up to 30 mins in presence of NADPH by LC-MS/MS analysis; assay type: ADME, microsome; conditions: read-out: Stability
[5] = Kinetic solubility of the compound in PAMPA buffer at 25 uM by nepheolometry method; assay type: physicochemical
P2X purinoceptor 7 [6] = target: T3, P2X purinoceptor 7 (Homo sapiens, UniProt Q99572); test: Antagonist activity at P2X7 in LPS/IFN gamma differentiated human THP-1 cells assessed as inhibition of BzATP-induced IL-1beta release preincubated for 30 mins followed by BzATP stimulation for 30 mins by ELISA; assay type: cell-based
T3 sequence (Q99572 whole entry): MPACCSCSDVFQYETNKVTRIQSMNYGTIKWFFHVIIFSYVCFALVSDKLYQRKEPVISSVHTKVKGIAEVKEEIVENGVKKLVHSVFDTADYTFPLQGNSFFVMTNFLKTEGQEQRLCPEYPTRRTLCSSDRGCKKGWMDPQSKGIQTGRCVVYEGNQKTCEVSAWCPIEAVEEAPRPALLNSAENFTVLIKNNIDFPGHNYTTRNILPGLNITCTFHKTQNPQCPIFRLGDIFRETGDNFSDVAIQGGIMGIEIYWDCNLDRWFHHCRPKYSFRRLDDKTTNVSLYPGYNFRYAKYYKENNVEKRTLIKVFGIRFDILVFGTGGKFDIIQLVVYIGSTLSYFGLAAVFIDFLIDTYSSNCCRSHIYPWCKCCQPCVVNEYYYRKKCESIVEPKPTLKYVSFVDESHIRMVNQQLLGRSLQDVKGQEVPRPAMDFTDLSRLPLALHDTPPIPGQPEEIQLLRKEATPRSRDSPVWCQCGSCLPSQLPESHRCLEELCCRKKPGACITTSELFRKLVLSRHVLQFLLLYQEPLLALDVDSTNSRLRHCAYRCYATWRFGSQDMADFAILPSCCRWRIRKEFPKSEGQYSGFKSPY

[7] = target: T4, P2X purinoceptor 7 (Homo sapiens) (UniProt Q99572); test: Antagonist activity at human P2X7 receptor expressed in HEK293 cells assessed as inhibition of BzATP-induced EtBr uptake at 1 uM after 2 hrs by fluorescence assay relative to control; assay type: cell-based
T4 sequence (whole entry): T3 sequence (Q99572 whole entry)

[8] = Metabolic stability in mouse liver microsomes assessed as parent compound remaining at 1 uM up to 30 mins in presence of NADPH by LC-MS/MS analysis; assay type: ADME, microsome; conditions: read-out: Stability
[9] = Cytotoxicity against HEK293 cells expressing human P2X7 receptor assessed as cell survival at 10 uM by MTT assay relative to control; assay type: cell-based; conditions: read-out: Survival
[10] = Effective permeability of the compound at 50 uM after 4 hrs by BBB-PAMPA method; assay type: ADME; conditions: read-out: Peff
[11] = Kinetic solubility of the compound in PAMPA buffer at 12.5 uM by nepheolometry method; assay type: physicochemical
[12] = target: T4, P2X purinoceptor 7 (Homo sapiens); test: Antagonist activity at human P2X7 receptor expressed in HEK293 cells assessed as inhibition of BzATP-induced EtBr uptake at 10 uM after 2 hrs by fluorescence assay relative to control; assay type: cell-based
[13] = Kinetic solubility of the compound in PAMPA buffer at 50 uM by nepheolometry method; assay type: physicochemical
Homo sapiens [14] = organism: Homo sapiens; test: Inhibition of neurosphere formation in human TS15-88 cells assessed as decrease in sphere size at 50 uM after 5 days by microscopic analysis relative to control; assay type: functional
[15] = Metabolic stability in rat liver microsomes assessed as parent compound remaining at 1 uM up to 30 mins in presence of NADPH by LC-MS/MS analysis; assay type: ADME, microsome; conditions: read-out: Stability
P2X purinoceptor 7 [16] = target: T3, P2X purinoceptor 7; test: Antagonist activity at human P2X7 receptor expressed in HEK293 cells assessed as inhibition of BzATP-induced EtBr uptake after 2 hrs by fluorescence assay relative to control; assay type: cell-based

IC50 (P2X purinoceptor 3): 500 nM
Compound: O=C(Nc1cc(C(=O)Nc2ccc(S(=O)(=O)O)cc2)cc(C(=O)Nc2ccc(S(=O)(=O)O)cc2)c1)Nc1cc(C(=O)Nc2ccc(S(=O)(=O)O)cc2)cc(C(=O)Nc2ccc(S(=O)(=O)O)cc2)c1

Compound: Nc1c(S(=O)(=O)O)cc(Nc2ccc(S(=O)(=O)O)c(Nc3nc(Cl)nc(Cl)n3)c2)c2c1C(=O)c1ccccc1C2=O
IC50 (P2X purinoceptor 1 [1]): 570 nM | IC50 (P2X purinoceptor 1 [2]): 4700 nM

Compound: O=C(CC12CC3CC(CC(C3)C1)C2)Nc1cccc2nc(-c3ccc(C(=O)O)cc3)ccc12
Activity (Homo sapiens [3]): inactive | remaining at 0.5 h, 1 µM [4]: 40.5% | Kinetic_solubility [5]: Soluble | IC50 (P2X purinoceptor 7 [6]): 25 nM | inhibition [7]: 87% | remaining at 0.5 h, 1 µM [8]: 8.1% | viability at 10 µM [9]: 94% | Papp at 4 h, 50 µM [10]: 8.44 to 8.46 ×10⁻⁶ cm/s | Kinetic_solubility [11]: Soluble | inhibition [12]: 93% | Kinetic_solubility [13]: Soluble | inhibition (Homo sapiens [14]): inactive | remaining at 0.5 h, 1 µM [15]: 10.9% | IC50 (P2X purinoceptor 7 [16]): 8 nM
